pIC50: −log10 of the molar value.
System: 994946-033-R-J1-PDC complex spheroid viability
Assay: Anticancer human tumor 994946-033-R-J1-PDC patient-derived melanoma cell line growth inhibition [POLQ]
Settings: for pIC50: curve of first compound; for viability, T/C: stronger effect = lower value
Outline: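 Patient-derived tumour cells were co-cultured with HUVEC and mesenchymal stem cells as multicellular spheroids at 37 °C. They were treated with POLQ inhibitors (novobiocin, ART-558, RP6685) alone or combined with other agents. Top concentrations were at or near clinical Cmax (otherwise 10 microM; SN-38 at 1 microM), decreasing in half-log steps.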

[1] = second compound 0.0316 µM, first compound 0.0316 µM
[2] = second compound 0.0316 µM, first compound 0.1 µM
[3] = second compound 0.0316 µM, first compound 0.316 µM
[4] = second compound 0.0316 µM, first compound 1 µM
[5] = second compound 0.0316 µM, first compound 3.16 µM
[6] = second compound 0.0316 µM, first compound 10 µM
[7] = second compound 0.1 µM, first compound 0.0316 µM
[8] = second compound 0.1 µM, first compound 0.1 µM
[9] = second compound 0.1 µM, first compound 0.316 µM
[10] = second compound 0.1 µM, first compound 1 µM
[11] = second compound 0.1 µM, first compound 3.16 µM
[12] = second compound 0.1 µM, first compound 10 µM
[13] = second compound 0.316 µM, first compound 0.0316 µM
[14] = second compound 0.316 µM, first compound 0.1 µM
[15] = second compound 0.316 µM, first compound 0.316 µM
[16] = second compound 0.316 µM, first compound 1 µM
[17] = second compound 0.316 µM, first compound 3.16 µM
[18] = second compound 0.316 µM, first compound 10 µM
[19] = second compound 1 µM, first compound 0.0316 µM
[20] = second compound 1 µM, first compound 0.1 µM
[21] = second compound 1 µM, first compound 0.316 µM
[22] = second compound 1 µM, first compound 1 µM
[23] = second compound 1 µM, first compound 3.16 µM
[24] = second compound 1 µM, first compound 10 µM
[25] = second compound 3.16 µM, first compound 0.0316 µM
[26] = second compound 3.16 µM, first compound 0.1 µM
[27] = second compound 3.16 µM, first compound 0.316 µM
[28] = second compound 3.16 µM, first compound 1 µM
[29] = second compound 3.16 µM, first compound 3.16 µM
[30] = second compound 3.16 µM, first compound 10 µM
[31] = second compound 10 µM, first compound 0.0316 µM
[32] = second compound 10 µM, first compound 0.1 µM
[33] = second compound 10 µM, first compound 0.316 µM
[34] = second compound 10 µM, first compound 1 µM
[35] = second compound 10 µM, first compound 3.16 µM
[36] = second compound 10 µM, first compound 10 µM
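Note: spheroids exposed to drugs for 7 days.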
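Throughout, for viability, T/C: 100% = DMSO vehicle treated spheroids.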

`COc1cccc2c1C(=O)c1c(O)c3c(c(O)c1C2=O)CC(O)(C(=O)CO)CC3OC1CC(N)C(O)C(C)O1` (stereo unspecified) + Cc1cccc(N(C)C(=O)C2C(O)CCN2c2nc(C)cc(C(F)(F)F)c2C#N)c1 showed a pIC50 (second compound 0.0316 µM) greater than 7.50, a pIC50 (second compound 0.1 µM) greater than 7.50 and a pIC50 (second compound 0.316 µM) greater than 7.50. The pIC50 (second compound 1 µM) was greater than 7.50, the pIC50 (second compound 3.16 µM) was greater than 7.50 and the pIC50 (second compound 10 µM) was greater than 7.50. The viability, T/C [1] was 31.8%, the viability, T/C [2] was 10.5% and the viability, T/C [3] was 2.24%. The viability, T/C [4] was 1.98%, the viability, T/C [5] was 2.99% and the viability, T/C [6] was 0.53%. It also gave a viability, T/C [7] of 26.8%, a viability, T/C [8] of 6.95% and a viability, T/C [9] of 3.98%. The viability, T/C [10] was 0.54%, the viability, T/C [11] was 1.3% and the viability, T/C [12] was 1.07%. For the same compound, the viability, T/C [13] was 22.5%, the viability, T/C [14] was 7.12% and the viability, T/C [15] was 3.03%. The viability, T/C [16] was 2.42%, the viability, T/C [17] was 1.56% and the viability, T/C [18] was 0.77%. It also gave a viability, T/C [19] of 47.9%, a viability, T/C [20] of 7.31% and a viability, T/C [21] of 1.73%. It also gave a viability, T/C [22] of 2.31%, a viability, T/C [23] of 1.01% and a viability, T/C [24] of 0.51%. For the same compound, the viability, T/C [25] was 22.8%, the viability, T/C [26] was 7.88% and the viability, T/C [27] was 1.7%. The viability, T/C [28] was 1.41%, the viability, T/C [29] was 1.39% and the viability, T/C [30] was 0.69%. It also gave a viability, T/C [31] of 33.1%, a viability, T/C [32] of 8.28% and a viability, T/C [33] of 2.08%. For the same compound, the viability, T/C [34] was 1.32%, the viability, T/C [35] was 0.67% and the viability, T/C [36] was 0.65%.
For `O=c1[nH]cc(F)c(=O)[nH]1` + COC1C(OC(N)=O)C(O)C(Oc2ccc3c(O)c(NC(=O)c4ccc(O)c(CC=C(C)C)c4)c(=O)oc3c2C)OC1(C)C, the pIC50 (second compound 0.0316 µM) was less than 5.00, the pIC50 (second compound 0.1 µM) was 5.08 and the pIC50 (second compound 0.316 µM) was 5.15. For the same compound, the pIC50 (second compound 1 µM) was less than 5.00, the pIC50 (second compound 3.16 µM) was 5.05 and the pIC50 (second compound 10 µM) was less than 5.00. The viability, T/C [1] was 86%, the viability, T/C [2] was 130% and the viability, T/C [3] was 113%. For the same compound, the viability, T/C [4] was 76%, the viability, T/C [5] was 60.7% and the viability, T/C [6] was 53.7%. It also gave a viability, T/C [7] of 91.2%, a viability, T/C [8] of 93.2% and a viability, T/C [9] of 102%. It also gave a viability, T/C [10] of 82%, a viability, T/C [11] of 61.7% and a viability, T/C [12] of 47.4%. The viability, T/C [13] was 133%, the viability, T/C [14] was 99.6% and the viability, T/C [15] was 100%. The viability, T/C [16] was 71%, the viability, T/C [17] was 45.3% and the viability, T/C [18] was 53.5%. The viability, T/C [19] was 87.6%, the viability, T/C [20] was 102% and the viability, T/C [21] was 91.8%. For the same compound, the viability, T/C [22] was 57%, the viability, T/C [23] was 53.7% and the viability, T/C [24] was 53.9%. The viability, T/C [25] was 124%, the viability, T/C [26] was 113% and the viability, T/C [27] was 83.7%. The viability, T/C [28] was 65.9%, the viability, T/C [29] was 60.6% and the viability, T/C [30] was 50.4%. It also gave a viability, T/C [31] of 108%, a viability, T/C [32] of 114% and a viability, T/C [33] of 90.5%. For the same compound, the viability, T/C [34] was 81.1%, the viability, T/C [35] was 58.6% and the viability, T/C [36] was 61.5%.
For `CC[C@@]1(O)C(=O)OCc2c1cc1n(c2=O)Cc2cc3c(CN(C)C)c(O)ccc3nc2-1` + Nc1ccc(C#CCN(C(=O)Cc2ncc(C(F)(F)F)cc2C(F)(F)F)c2ccc(F)cc2)nn1, the pIC50 (second compound 0.0316 µM) was 7.58, the pIC50 (second compound 0.1 µM) was 7.53 and the pIC50 (second compound 0.316 µM) was 7.67. For the same compound, the pIC50 (second compound 1 µM) was 7.65, the pIC50 (second compound 3.16 µM) was 7.67 and the pIC50 (second compound 10 µM) was 7.52. It also gave a viability, T/C (second compound 0.0316 µM, first compound 0.000316 µM) of 95.3%, a viability, T/C (second compound 0.0316 µM, first compound 0.001 µM) of 94.5% and a viability, T/C (second compound 0.0316 µM, first compound 0.00316 µM) of 99.9%. The viability, T/C (second compound 0.0316 µM, first compound 0.01 µM) was 79%, the viability, T/C [1] was 45% and the viability, T/C [2] was 9.6%. The viability, T/C (second compound 0.1 µM, first compound 0.000316 µM) was 91.7%, the viability, T/C (second compound 0.1 µM, first compound 0.001 µM) was 113% and the viability, T/C (second compound 0.1 µM, first compound 0.00316 µM) was 78.2%. The viability, T/C (second compound 0.1 µM, first compound 0.01 µM) was 98.9%, the viability, T/C [7] was 46.9% and the viability, T/C [8] was 15.4%. It also gave a viability, T/C (second compound 0.316 µM, first compound 0.000316 µM) of 101%, a viability, T/C (second compound 0.316 µM, first compound 0.001 µM) of 109% and a viability, T/C (second compound 0.316 µM, first compound 0.00316 µM) of 89.9%. It also gave a viability, T/C (second compound 0.316 µM, first compound 0.01 µM) of 79.5%, a viability, T/C [13] of 34.6% and a viability, T/C [14] of 17.1%. It also gave a viability, T/C (second compound 1 µM, first compound 0.000316 µM) of 130%, a viability, T/C (second compound 1 µM, first compound 0.001 µM) of 90.3% and a viability, T/C (second compound 1 µM, first compound 0.00316 µM) of 106%. For the same compound, the viability, T/C (second compound 1 µM, first compound 0.01 µM) was 87.8%, the viability, T/C [19] was 33.7% and the viability, T/C [20] was 11.7%. The viability, T/C (second compound 3.16 µM, first compound 0.000316 µM) was 92%, the viability, T/C (second compound 3.16 µM, first compound 0.001 µM) was 119% and the viability, T/C (second compound 3.16 µM, first compound 0.00316 µM) was 96.8%. It also gave a viability, T/C (second compound 3.16 µM, first compound 0.01 µM) of 86.8%, a viability, T/C [25] of 31.4% and a viability, T/C [26] of 13.7%. It also gave a viability, T/C (second compound 10 µM, first compound 0.000316 µM) of 100%, a viability, T/C (second compound 10 µM, first compound 0.001 µM) of 113% and a viability, T/C (second compound 10 µM, first compound 0.00316 µM) of 98.5%. It also gave a viability, T/C (second compound 10 µM, first compound 0.01 µM) of 110%, a viability, T/C [31] of 47.7% and a viability, T/C [32] of 14.4%.

Source: PubChem BioAssay AID1963827 (Molecular Pharmacology Branch, DTP, NCI, 2024)
